{"source": "paper PMC6079014", "about": "“Calcium is an essential cofactor for metal efflux by the ferroportin transporter family” (Nature Communications, 2018)", "biological_target": "T1, human Fpn (Homo sapiens, UniProt Q9NP59)", "T1 construct": "expressed in transfected cells; host or cells: Xenopus laevis oocytes injected with Fpn RNA", "T1 sequence (Q9NP59 1-571)": "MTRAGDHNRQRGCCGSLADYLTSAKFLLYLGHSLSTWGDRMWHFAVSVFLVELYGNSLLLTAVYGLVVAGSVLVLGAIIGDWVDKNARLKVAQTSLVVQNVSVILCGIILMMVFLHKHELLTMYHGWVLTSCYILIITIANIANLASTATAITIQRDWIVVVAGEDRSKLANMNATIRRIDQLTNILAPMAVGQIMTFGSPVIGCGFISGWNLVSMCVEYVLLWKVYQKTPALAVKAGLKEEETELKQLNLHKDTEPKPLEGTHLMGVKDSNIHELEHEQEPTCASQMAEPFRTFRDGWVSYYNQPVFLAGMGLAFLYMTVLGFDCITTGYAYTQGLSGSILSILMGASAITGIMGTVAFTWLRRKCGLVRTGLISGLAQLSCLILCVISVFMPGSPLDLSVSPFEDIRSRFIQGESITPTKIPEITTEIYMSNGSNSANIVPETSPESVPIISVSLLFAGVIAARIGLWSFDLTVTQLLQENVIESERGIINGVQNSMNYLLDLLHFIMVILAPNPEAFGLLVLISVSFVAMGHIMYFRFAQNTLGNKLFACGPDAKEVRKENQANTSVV", "assay": "45Ca radiotracer uptake assay in Xenopus oocytes expressing Fpn", "assay_type": "cell-based", "conditions": "100 μM 45Ca2+, 30 min; vehicle or 50 nl of 50 µM Fe injected", "protocol": "We performed laparotomy and ovariectomy on adult female Xenopus laevis frogs (Nasco, Fort Atkinson, WI) under 2-aminoethylbenzoate methanesulfonate anesthesia (0.2%, by immersion, to effect) following a protocol approved by the University of Cincinnati Institutional Animal Care and Use Committee. Ovarian tissue was isolated and treated for 3 h with […] collagenase A (Roche Diagnostics Corp., Indianapolis, IN) in calcium-free-modified Barths’ medium (MBM) of composition 88 mM NaCl, 1 mM KCl, 2.4 mM NaHCO3, 1.57 mM MgSO4, 0.66 mM NaNO3, 10 mM 4-(2-hydroxyethyl)-1-piperazineethanesulfonic acid (HEPES), buffered to pH 7.5 by using 2-amino-2-hydroxymethyl-propane-1,3-diol (Tris base). We isolated defolliculate stage V–VI oocytes stored at 17 °C in MBM of composition 88 mM NaCl, 1 mM KCl, 2.4 mM NaHCO3, 0.82 MgSO4, 0.75 mM CaCl2, 0.66 mM NaNO3, 10 mM HEPES, buffered to pH 7.5 by using Tris base, with 50 mg l^−1 ciprofloxacin. We expressed in Xenopus oocytes the 1A transcript form of human Fpn fused at its C-terminus with the enhanced green fluorescent protein (GFP) as described. Oocytes were injected with ∼50 ng of Fpn RNA and incubated for 4–6 days before being used in functional assays. Control oocytes were noninjected.\nWe measured calcium uptake by using a radiotracer assay. […]"}
{"smiles": "[Ca+2]", "note": "[Ca^2+, calcium]", "values": [{"measurement": "Uptake of 45Ca2+ in oocytes expressing Fpn vs control", "result": "neither Fpn expression nor intracellular iron injection stimulated"}]}
